From PMC2676897 (Bioorganic & medicinal chemistry letters, 2009)

Key:
MDA-MB231 cells = assay: Growth inhibition of ER-negative MDA-MB231 cells, MTS assay; conditions: for growth inhibitory activity: ER-negative MDA-MB231 cells, 72 h, MTS; for toxicity to cells: MDA-MB231 cells, 25 μM
[1] = test system: ATCC MCF7 cells (ERα expressing); assay: Inhibition of E2-induced proliferation, MTS assay, ATCC MCF7 expressing only ERα; format: cell-based, human; conditions: 1 nM E2, 6 days

Compound	growth inhibitory activity (MDA-MB231 cells)	toxicity to cells (MDA-MB231 cells)	GI50, inhibition of E2-induced proliferation [1]
CCCC[C@@H]1C[C@H]1[C@@H](N)c1ccc(-c2ccc(O)cc2)cc1F.Cl [Compound 13]	did not demonstrate significant growth inhibitory activity	toxicity	–
CCCC[C@@H]1C[C@H]1[C@@H](NC(=O)c1ccccc1)c1ccc(-c2ccc(O)cc2)cc1F [Compound 11b]	did not demonstrate significant growth inhibitory activity	toxicity	did not demonstrate inhibition
O=C(c1ccc(OCCN2CCCCC2)cc1)c1c(-c2ccc(O)cc2)sc2cc(O)ccc12 [RAL, Raloxifene, reference compound]	did not demonstrate significant growth inhibitory activity	toxicity	–
